Source: EP1329454A1, “THIENOPYRIMIDINE COMPOUNDS AND THEIR SALTS AND PROCESS FOR PREPARATION OF BOTH” (NIPPON SODA CO., LTD., priority 2000, dated 2002)

Key:
Format in all cases: biochemical
[1] = molecular target: PDE 1 (Ca-calmodulin dependent PDE); test: Phosphodiesterase inhibiting effect, PDE 1 separated from dog heart; settings: isozyme from the heart of a dog; [3H]-cAMP or [3H]-cGMP substrate; read-out: PDE inhibiting activity : IC50(nM) PDE1
Description: (§1) Cyclic nucleotide phosphodiesterases from human platelets and from the heart and kidney of a dog were eluted by the concentration gradient method with 70 to 1000 mM of sodium acetate on DEAE-cellulose column chromatography (Whatman Co. Ltd., DE-52, φ 3.2 x 13 cm) according to the method of Thompson and others (Thompson W. J., et al., Advances in Cyclic Nucleotide Research: 10, 69-92, 1979), and separated into isozymes. PDE 5 (cGMP specific PDE), PDE 3 (cGMP inhibited PDE) and PDE 2 (cGMP stimulated PDE) were separated from the platelets, PDE 1 (Ca-calmodulin dependent PDE) and PDE 4 (cAMP specific PDE) were separated from the heart and the kidney respectively. The method of Thompson, et al was partially modified to measure phosphodiesterase activities: […] of [3H]-cAMP or [3H]-cGMP was decomposed with phosphodiesterase. The produced 5'-AMP or 5'-GMP was decomposed to adenosine or guanosine with a snake venom (Sigma V7000). The reaction solution was added to anion exchange resin (Bio-Rad Co. Ltd., AG1-X8). Non-adsorbed adenosine or guanosine was counted by a liquid scintillation counter. […]

[2] = molecular target: PDE 4 (cAMP specific PDE); test: Phosphodiesterase inhibiting effect, PDE 4 separated from dog kidney; settings: isozyme from the kidney of a dog; [3H]-cAMP or [3H]-cGMP substrate; read-out: PDE inhibiting activity : IC50(nM) PDE4
Description: as §1

[3] = molecular target: T1, PDE 5 (cGMP specific PDE) (Homo sapiens, UniProt O76074); test: Phosphodiesterase inhibiting effect, PDE 5 separated from human platelets; settings: isozyme from human platelets; [3H]-cAMP or [3H]-cGMP substrate; read-out: PDE inhibiting activity : IC50(nM) PDE5
T1 construct: from tissue; host or cells: human platelets, DEAE-cellulose fraction
Description: as §1

[4] = molecular target: T2, PDE 3 (cGMP inhibited PDE) (Homo sapiens, UniProt Q14432); settings: isozyme from human platelets; [3H]-cAMP or [3H]-cGMP substrate; read-out: PDE inhibiting activity : IC50(nM) PDE3
T2 construct: from tissue; host or cells: human platelets, DEAE-cellulose fraction
Description: PDE 5 (cGMP specific PDE), PDE 3 (cGMP inhibited PDE) and PDE 2 (cGMP stimulated PDE) were separated from the platelets, PDE 1 (Ca-calmodulin dependent PDE) and PDE 4 (cAMP specific PDE) were separated from the heart and the kidney respectively. The method of Thompson, et al was partially modified to measure phosphodiesterase activities: […] of [3H]-cAMP or [3H]-cGMP was decomposed with phosphodiesterase. The produced 5'-AMP or 5'-GMP was decomposed to adenosine or guanosine with a snake venom (Sigma V7000). The reaction solution was added to anion exchange resin (Bio-Rad Co. Ltd., AG1-X8). Non-adsorbed adenosine or guanosine was counted by a liquid scintillation counter.

T2 sequence (Q14432 whole entry): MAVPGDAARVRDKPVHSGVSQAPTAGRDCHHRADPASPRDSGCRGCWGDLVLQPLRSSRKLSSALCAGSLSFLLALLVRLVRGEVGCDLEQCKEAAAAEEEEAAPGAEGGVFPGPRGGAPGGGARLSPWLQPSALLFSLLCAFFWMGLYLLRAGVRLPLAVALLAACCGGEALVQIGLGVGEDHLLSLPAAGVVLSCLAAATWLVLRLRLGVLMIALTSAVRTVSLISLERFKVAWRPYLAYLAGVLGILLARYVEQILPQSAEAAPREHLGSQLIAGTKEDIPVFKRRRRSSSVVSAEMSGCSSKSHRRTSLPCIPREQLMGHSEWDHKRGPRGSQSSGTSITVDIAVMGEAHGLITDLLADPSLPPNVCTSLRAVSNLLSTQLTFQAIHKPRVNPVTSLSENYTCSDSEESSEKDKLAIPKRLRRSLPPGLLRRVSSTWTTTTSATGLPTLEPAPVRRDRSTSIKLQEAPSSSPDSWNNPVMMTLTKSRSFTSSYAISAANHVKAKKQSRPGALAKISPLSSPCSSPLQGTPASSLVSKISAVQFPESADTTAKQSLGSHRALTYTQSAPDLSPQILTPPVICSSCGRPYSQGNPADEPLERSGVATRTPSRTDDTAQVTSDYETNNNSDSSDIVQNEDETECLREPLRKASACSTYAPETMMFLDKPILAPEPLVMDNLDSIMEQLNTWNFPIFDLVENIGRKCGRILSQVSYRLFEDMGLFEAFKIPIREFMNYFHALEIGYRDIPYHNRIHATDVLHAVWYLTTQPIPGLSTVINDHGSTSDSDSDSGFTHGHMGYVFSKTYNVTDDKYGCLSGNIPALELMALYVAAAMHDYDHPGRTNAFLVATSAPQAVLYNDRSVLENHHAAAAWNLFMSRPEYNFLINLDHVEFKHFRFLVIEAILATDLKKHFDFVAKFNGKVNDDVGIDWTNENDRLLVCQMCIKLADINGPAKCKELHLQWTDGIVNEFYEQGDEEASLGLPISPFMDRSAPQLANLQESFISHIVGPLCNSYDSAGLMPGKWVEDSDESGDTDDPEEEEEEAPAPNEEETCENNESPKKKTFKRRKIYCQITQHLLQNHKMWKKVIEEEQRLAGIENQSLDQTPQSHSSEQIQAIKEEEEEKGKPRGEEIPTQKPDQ

Compound	IC50 [1] [nM]	IC50 [2] [nM]	IC50 [3] [nM]	IC50 [4] [nM]
COc1ccc(CNc2nc(-c3cccnc3)nc3sc(C(=O)O)c(C)c23)cc1Cl [Compound 1]	7100	1200	3	–
COc1ccc(CNc2nc(-c3cccnc3)nc3sc(C(N)=O)c(C)c23)cc1Cl [Compound 3]	–	–	2.3	–
COc1ccc(CNc2nc(-c3cccnc3)nc3sc(C#N)c(C)c23)cc1Cl [Compound 4]	–	–	4.5	–
COc1ccc(CNc2nc(-c3cccnc3)nc3sc(C(=O)N(C)C)c(C)c23)cc1Cl [Compound 5]	> 10000	1400	3.7	–
COc1ccc(CNc2nc(-c3cccnc3)nc3sc(C(=O)Nc4ccccc4)c(C)c23)cc1Cl [Compound 6]	> 10000	–	1.5	–
COc1ccc(CNc2nc(-c3cccnc3)nc3sc(C(=O)N4CCOCC4)c(C)c23)cc1Cl [Compound 7]	> 10000	1700	3.5	–
COc1ccc(CNc2nc(-c3cccnc3)nc3sc(C(=O)N4CCN(C=O)CC4)c(C)c23)cc1Cl [Compound 9]	–	–	6.1	–
COc1ccc(CNc2nc(-c3cccnc3)nc3sc(-c4ccncc4)c(C)c23)cc1Cl [Compound 10]	> 10000	–	3.3	–
COc1ccc(CNc2nc(-c3cccnc3)nc3sc(C(=O)Nc4nccs4)c(C)c23)cc1Cl [Compound 13]	–	–	0.32	–
COc1ccc(CNc2nc(-c3cccnc3)nc3sc(C(=O)Nc4cccnc4)c(C)c23)cc1Cl [Compound 14]	–	–	2.1	–
COc1ccc(CNc2nc(-c3cccnc3)nc3sc(C(=O)NCCO)c(C)c23)cc1Cl [Compound 17]	–	–	2.8	–
COc1ccc(CNc2nc(-c3cccnc3)nc3sc(C(=O)NCCO[N+](=O)[O-])c(C)c23)cc1Cl [Compound 18]	–	–	2.8	–
COc1ccc(CNc2nc(-c3ccncc3)nc3sc(C(=O)O)c(C)c23)cc1Cl [Compound 19]	> 10000	4400	0.74	–
CCOC(=O)c1sc2nc(-c3ccncc3)nc(NCc3ccc(OC)c(Cl)c3)c2c1C [Compound 20]	> 10000	> 10000	3.2	–
COc1ccc(CNc2nc(-c3ccncc3)nc3sc(C(=O)N(C)C)c(C)c23)cc1Cl [Compound 23]	> 10000	1600	1.6	–
COc1ccc(CNc2nc(-c3ccncc3)nc3sc(C(=O)Nc4ccccc4)c(C)c23)cc1Cl [Compound 24]	–	–	0.46	–
COc1ccc(CNc2nc(-c3ccncc3)nc3sc(C(=O)Nc4ccc(NC(=O)OC(C)(C)C)cc4)c(C)c23)cc1Cl [Compound 25]	–	–	0.52	–
COc1ccc(CNc2nc(-c3ccncc3)nc3sc(C(=O)Nc4ccc(N)cc4)c(C)c23)cc1Cl [Compound 26]	–	–	0.5	–

Compound	IC50 [1] [nM]	IC50 [2] [nM]	IC50 [3] [nM]	IC50 [4] [nM]
COc1ccc(CNc2nc(-c3ccncc3)nc3sc(C(=O)N4CCOCC4)c(C)c23)cc1Cl [Compound 27]	> 10000	3700	0.53	–
COc1ccc(CNc2nc(-c3ccncc3)nc3sc(C(=O)N4CCCCC4)c(C)c23)cc1Cl [Compound 28]	> 10000	1600	0.5	–
COc1ccc(CNc2nc(-c3ccncc3)nc3sc(C(=O)N4CCN(C)CC4)c(C)c23)cc1Cl [Compound 29]	> 10000	6900	0.52	–
COc1ccc(CNc2nc(-c3ccncc3)nc3sc(-c4ccccn4)c(C)c23)cc1Cl [Compound 32]	> 10000	240	0.68	–
COc1ccc(CNc2nc(-c3ccncc3)nc3sc(C(=O)Nc4nccs4)c(C)c23)cc1Cl [Compound 33]	–	–	0.095	–
COc1ccc(CNc2nc(-c3ccncc3)nc3sc(C(=O)NCCO[N+](=O)[O-])c(C)c23)cc1Cl [Compound 38]	–	–	0.65	–
COc1ccc(CNc2nc(-c3ccccn3)nc3sc(C(=O)Nc4ccccc4)c(C)c23)cc1Cl [Compound 44]	> 10000	–	6.4	–
COc1ccc(CNc2nc(-c3ccccn3)nc3sc(C(=O)Nc4nccs4)c(C)c23)cc1Cl [Compound 50]	–	–	2.3	–
COc1ccc(CNc2nc(-c3ccccn3)nc3sc(C(=O)Nc4cccnc4)c(C)c23)cc1Cl [Compound 51]	–	–	7.2	–
COc1ccc(CNc2nc(C(=O)Nc3ccccc3)nc3sc(-c4cccnc4)c(C)c23)cc1Cl [Compound 57]	–	–	0.29	–
COc1ccc(CNc2nc(C(=O)Nc3ccccc3)nc3sc(-c4ccncc4)c(C)c23)cc1Cl [Compound 68]	> 10000	10000	0.27	2400
COc1ccc(CNc2nc(C(=O)Nc3ccccc3)nc3sc(C(=O)Nc4ccccc4)c(C)c23)cc1Cl [Compound 87]	–	–	0.27	–
COc1ccc(CNc2nc(C(=O)Nc3ccccc3)nc3sc(-c4ccc(F)cc4)c(C)c23)cc1Cl [Compound 90]	> 10000	8400	0.43	> 10000
COc1ccc(CNc2nc(C(=O)Nc3ccccc3)nc3scc(C)c23)cc1Cl [Compound 91]	> 10000	3400	2.5	> 10000
CCOC(=O)c1nc(NCc2ccc(OC)c(Cl)c2)c2cc(-c3ccccc3)sc2n1 [Compound 93]	> 10000	> 10000	2.9	> 10000
COc1ccc(CNc2nc(C(=O)Nc3ccccc3)nc3sc(-c4ccccc4)cc23)cc1Cl [Compound 94]	> 10000	5600	0.71	> 10000
CCCc1nn(C)c2c(=O)[nH]c(-c3cc(S(=O)(=O)N4CCN(C)CC4)ccc3OCC)nc12 [Control, Sildenafil, reference compound]	2000	> 1000	–	–
